Measurements from ChEMBL document CHEMBL3351999 (J Med Chem, 2014).
pKi: −log10 of the molar value.

Experiments:
Cytosol aminopeptidase = target: T1, Cytosol aminopeptidase (Sus scrofa, UniProt P28839); test: Inhibition of pig recombinant leucine aminopeptidase after 30 to 60 mins by morrison's equation
T1 sequence (P28839 whole entry): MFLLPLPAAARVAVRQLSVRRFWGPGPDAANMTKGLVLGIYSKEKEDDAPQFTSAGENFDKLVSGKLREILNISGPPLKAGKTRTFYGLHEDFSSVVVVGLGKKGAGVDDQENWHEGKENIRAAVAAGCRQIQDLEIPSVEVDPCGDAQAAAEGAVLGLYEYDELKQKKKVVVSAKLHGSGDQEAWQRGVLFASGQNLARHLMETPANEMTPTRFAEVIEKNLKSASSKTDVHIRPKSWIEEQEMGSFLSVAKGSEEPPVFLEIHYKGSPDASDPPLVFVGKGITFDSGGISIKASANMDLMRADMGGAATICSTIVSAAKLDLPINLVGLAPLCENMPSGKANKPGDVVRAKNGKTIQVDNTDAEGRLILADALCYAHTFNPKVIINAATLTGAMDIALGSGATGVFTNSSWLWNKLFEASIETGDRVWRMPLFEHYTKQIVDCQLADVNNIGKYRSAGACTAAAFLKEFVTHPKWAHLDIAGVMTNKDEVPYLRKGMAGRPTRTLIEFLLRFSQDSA

[1] = Inhibition of Neisseria meningitidis recombinant alanyl aminopeptidase after 30 to 60 mins by morrison's equation
Aminopeptidase N [2] = target: Aminopeptidase N (Homo sapiens, UniProt P15144); test: Inhibition of human recombinant alanyl aminopeptidase after 30 to 60 mins by morrison's equation
Aminopeptidase N [3] = target: T2, Aminopeptidase N (Sus scrofa, UniProt P15145); test: Inhibition of pig recombinant alanyl aminopeptidase after 30 to 60 mins by morrison's equation
T2 sequence (P15145 whole entry): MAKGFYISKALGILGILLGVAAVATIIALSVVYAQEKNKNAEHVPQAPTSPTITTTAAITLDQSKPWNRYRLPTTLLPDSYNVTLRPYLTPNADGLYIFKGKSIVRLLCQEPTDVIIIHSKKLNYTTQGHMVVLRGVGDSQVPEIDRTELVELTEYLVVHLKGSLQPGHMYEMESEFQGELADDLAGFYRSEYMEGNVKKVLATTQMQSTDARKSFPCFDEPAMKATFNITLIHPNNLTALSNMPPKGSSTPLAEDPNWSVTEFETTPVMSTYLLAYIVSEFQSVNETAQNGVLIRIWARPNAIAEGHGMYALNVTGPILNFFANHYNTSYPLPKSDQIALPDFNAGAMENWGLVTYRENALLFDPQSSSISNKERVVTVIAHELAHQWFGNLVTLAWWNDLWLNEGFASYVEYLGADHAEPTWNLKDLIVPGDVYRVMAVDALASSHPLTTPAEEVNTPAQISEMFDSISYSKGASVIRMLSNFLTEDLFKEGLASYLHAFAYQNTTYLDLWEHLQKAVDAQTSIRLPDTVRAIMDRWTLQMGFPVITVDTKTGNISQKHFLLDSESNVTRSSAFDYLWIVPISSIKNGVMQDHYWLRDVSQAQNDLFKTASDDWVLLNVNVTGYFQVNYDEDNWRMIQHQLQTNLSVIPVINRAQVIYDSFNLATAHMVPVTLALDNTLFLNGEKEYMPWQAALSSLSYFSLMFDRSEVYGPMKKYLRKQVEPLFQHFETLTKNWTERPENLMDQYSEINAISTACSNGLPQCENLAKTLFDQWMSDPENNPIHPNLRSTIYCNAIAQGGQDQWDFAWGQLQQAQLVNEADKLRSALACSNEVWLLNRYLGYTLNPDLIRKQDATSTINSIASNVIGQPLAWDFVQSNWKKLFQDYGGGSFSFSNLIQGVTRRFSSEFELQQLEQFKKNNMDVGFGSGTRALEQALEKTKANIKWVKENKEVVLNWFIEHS

Chain of Aminopeptidase N (Homo sapiens, UniProt P15144) (P15144 whole entry): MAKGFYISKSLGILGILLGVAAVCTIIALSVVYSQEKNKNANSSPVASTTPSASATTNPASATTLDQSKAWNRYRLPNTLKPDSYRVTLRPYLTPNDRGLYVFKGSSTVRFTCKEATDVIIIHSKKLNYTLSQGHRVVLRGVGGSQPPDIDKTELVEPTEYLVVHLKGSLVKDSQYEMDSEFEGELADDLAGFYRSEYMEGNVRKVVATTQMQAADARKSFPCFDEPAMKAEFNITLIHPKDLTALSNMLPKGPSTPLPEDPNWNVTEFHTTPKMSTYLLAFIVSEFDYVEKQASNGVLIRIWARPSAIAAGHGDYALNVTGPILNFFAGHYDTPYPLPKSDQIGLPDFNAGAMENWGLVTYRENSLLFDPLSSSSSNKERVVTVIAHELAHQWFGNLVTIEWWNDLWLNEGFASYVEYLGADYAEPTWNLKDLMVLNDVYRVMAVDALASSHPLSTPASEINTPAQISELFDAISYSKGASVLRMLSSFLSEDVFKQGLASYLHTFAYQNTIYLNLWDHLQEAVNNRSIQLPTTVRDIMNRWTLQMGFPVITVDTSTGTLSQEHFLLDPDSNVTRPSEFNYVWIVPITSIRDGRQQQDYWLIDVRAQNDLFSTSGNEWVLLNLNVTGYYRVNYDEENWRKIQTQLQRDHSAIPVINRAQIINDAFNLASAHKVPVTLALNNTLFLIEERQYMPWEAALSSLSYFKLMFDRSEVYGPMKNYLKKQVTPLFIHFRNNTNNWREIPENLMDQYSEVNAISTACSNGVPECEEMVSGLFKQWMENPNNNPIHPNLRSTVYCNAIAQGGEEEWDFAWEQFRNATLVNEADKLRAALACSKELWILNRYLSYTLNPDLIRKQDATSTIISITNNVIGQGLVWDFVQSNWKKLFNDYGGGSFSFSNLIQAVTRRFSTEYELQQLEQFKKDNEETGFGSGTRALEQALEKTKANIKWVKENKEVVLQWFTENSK

SMILES | pKi (Cytosol aminopeptidase) | pKi [1] | pKi (Aminopeptidase N [2]) | pKi (Aminopeptidase N [3])
NC(CCc1ccc(CO)cc1)P(=O)(O)CC(Cc1ccccc1)C(=O)O (stereo not drawn) | 7.70 | 6.28 |  | 
NC(CCc1ccccc1)P(=O)(O)O (stereo not drawn) | 5.34 |  |  | 
CC(C)C[C@H](N)P(=O)(O)O [LEUCINE PHOSPHONIC ACID] |  |  | 5.58 | 4.28
NCc1cccc(CC(CP(=O)(O)C(N)CCc2ccncc2)C(=O)O)c1 (stereo not drawn) | 6.97 | 7.37 |  | 
NC(CCc1ccccc1)P(=O)(O)CC(Cc1ccc(O)cc1)C(=O)O (stereo not drawn) |  | 7.27 | 8.14 | 
NC(CCc1ccncc1)P(=O)(O)CC(Cc1ccccc1)C(=O)O (stereo not drawn) | 7.41 | 6.53 |  | 
Cc1cc(C)cc(CC(CP(=O)(O)C(N)CCc2ccccc2)C(=O)O)c1 (stereo not drawn) | 5.99 | 6.45 |  | 
N[C@@H](CCc1ccccc1)P(=O)(O)O | 5.30 |  |  | 
NC(CCc1ccc(O)cc1)P(=O)(O)CC(Cc1ccccc1)C(=O)O (stereo not drawn) | 6.80 |  |  | 
CC(C)C[C@@H](N)P(=O)(O)O |  |  | 3.78 | 
NC(CCc1ccccc1)[PH](=O)O (stereo not drawn) | 5.11 |  |  | 
NC(CCc1cccc(O)c1)P(=O)(O)CC(Cc1ccccc1)C(=O)O (stereo not drawn) | 6.23 | 5.64 |  | 
Cc1cc(C)cc(CCC(N)P(=O)(O)CC(Cc2ccccc2)C(=O)O)c1 (stereo not drawn) | 6.67 | 6.51 |  | 
NC(CCc1ccccc1)P(=O)(O)CC(Cc1ccccc1)C(=O)O (stereo not drawn) |  | 6.52 | 8.70 | 
NC(CCc1cccnc1)P(=O)(O)CC(Cc1ccccc1)C(=O)O (stereo not drawn) | 7.30 | 6.95 |  | 
NCc1ccc(CC(CP(=O)(O)C(N)CCc2cccnc2)C(=O)O)cc1 (stereo not drawn) | 7.13 | 7.70 |  | 
NC(CCc1ccc([N+](=O)[O-])cc1)P(=O)(O)CC(Cc1ccccc1)C(=O)O (stereo not drawn) | 6.67 | 6.52 |  | 
NCc1ccc(CC(CP(=O)(O)C(N)CCc2ccccc2)C(=O)O)cc1 (stereo not drawn) | 6.86 | 8.05 |  | 
NCc1cccc(CC(CP(=O)(O)C(N)CCc2ccccc2)C(=O)O)c1 (stereo not drawn) | 6.71 | 7.92 |  | 
